Test results as given in patent US9980973B2, “Bicyclic heterocycle compounds and their uses in therapy” (ASTEX THERAPEUTICS LIMITED, priority 2012, dated 2018).
Where a name gives a salt, the structure may show the parent alone. Read-outs that look alike come from different tables or passages of the source.

Legend:
[1] = target: T1, BIR3 domain of human XIAP (Homo sapiens, UniProt P98170); assay: XIAP in vitro competitive displacement binding assay (fluorescence polarization); settings: for inhibition at 0.04 µM: 1 h, PI at 0.04 μM, read-out: Xiap IC50 or PI μM (PI)
T1 construct: BIR3 domain of human XIAP (residues 252-350) fused to a His-tag; His-tag (cleaved yes); made in house; host or cells: Escherichia coli

[2] = tested on: EVSA-T (human breast carcinoma); assay: Anti-proliferative activity, Alamar Blue assay, EVSA-T; assay type: cell-based; settings: for EC50: Homo sapiens, EVSA-T
[3] = 72 h, EVSA-T cells, 72 hours, Alamar Blue, read-out: EVSA-T prolif
[4] = read-out: EC50 in EVSA-T cell line assays
[5] = plain number = IC50, average where more than one data point, read-out: Xiap IC50 or PI μM (IC50)

T1 sequence (P98170 252-350): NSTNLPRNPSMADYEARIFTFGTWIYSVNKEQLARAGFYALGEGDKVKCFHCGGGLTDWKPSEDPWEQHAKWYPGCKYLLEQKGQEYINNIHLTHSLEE

| SMILES | inhibition at 0.04 µM [1] [%] | EC50 [2, 3] [nM] | EC50 [2, 4] [nM] | IC50 ([1]; or at least 50% inhibition of the activity at 0.1 μM, read-out: IC50 in the XIAP assay) [µM] | IC50 [1, 5] [µM] | EVSA-T prolif (% at concentration) ([2]; at 0.001 μM) [% at] |
| --- | --- | --- | --- | --- | --- | --- |
| C[C@@H]1CN(CC(=O)N2CC(C)(C)c3ncc(Cc4ccc(F)cc4)cc32)[C@@H](CN2CCOC[C@H]2CF)CN1 [Example 19, 2-[(2R,5R)-2-{[(3S)-3-(Fluoromethyl)morpholin-4-yl]methyl}-5-methylpiperazin-1-yl]-1-{6-[(4-fluorophenyl)methyl]-3,3-dimethyl-1H,2H,3H-pyrrolo[3,2-b]pyridin-1-yl}ethan-1-one dihydrochloride] | 43 | 0.65 | < 1000 | – | – | – |
| C[C@@H]1CN(CC(=O)N2CC(C)(C)c3cnc(Cc4ccc(F)cc4)cc32)[C@@H](CN2CCOC[C@@]2(C)CO)CN1 [Example 62, 1-{6-[(4-Fluorophenyl)methyl]-3,3-dimethyl-1H,2H,3H-pyrrolo[3,2-c]pyridin-1-yl}-2-[(2R,5R)-2-{[(3R)-3-(hydroxymethyl)-3-methylmorpholin-4-yl]methyl}-5-methylpiperazin-1-yl]ethan-1-one, dihydrochloride] | 60 | 1.1 | < 1000 | – | – | – |
| C[C@@H]1CN(CC(=O)N2CC(C)(C)c3ncc(Cc4ccc(F)cc4)cc32)[C@@H](CN2CCOC[C@@]2(C)CO)CN1 [Example 51, 1-{6-[(4-Fluorophenyl)methyl]-3,3-dimethyl-1H,2H,3H-pyrrolo[3,2-b]pyridin-1-yl}-2-[(2R,5R)-2-{[(3R)-3-(hydroxymethyl)-3-methylmorpholin-4-yl]methyl}-5-methylpiperazin-1-yl]ethan-1-one, dihydrochloride] | 44 | 2.2 | < 1000 | – | – | – |
| COC[C@@]1(C)COCCN1C[C@H]1CN[C@H](C)CN1CC(=O)N1CC(C)(C)c2cnc(Cc3ccc(F)cc3F)cc21 [Example 98, 1-{6-[(2,4-Difluorophenyl)methyl]-3,3-dimethyl-1H,2H,3H-pyrrolo[3,2-c]pyridin-1-yl}-2-[(2R,5R)-2-{[(3S)-3-(methoxymethyl)-3-methylmorpholin-4-yl]methyl}-5-methylpiperazin-1-yl]ethan-1-one dihydrochloride] | 62 | 7.3 | < 1000 | < 0.1 | – | – |
| C[C@@H]1CN(CC(=O)N2CC(C)(C)c3ncc(Cc4ccc(F)cc4)cc32)[C@@H](CN2CCOCC2(C)C(=O)O)CN1 (stereo partly drawn) [Example 59, 4-{[(2R,5R)-1-(2-{6-[(4-Fluorophenyl)methyl]-3,3-dimethyl-1H,2H,3H-pyrrolo[3,2-b]pyridin-1-yl}-2-oxoethyl)-5-methylpiperazin-2-yl]methyl}-3-methylmorpholine-3-carboxylic acid, dihydrochloride] | – | 42 | < 1000 | – | 0.34 | – |
| C[C@@H]1CN(CC(=O)N2CC(C)(C)c3ncc(Cc4ccc(F)cc4)cc32)[C@@H](CN2C[C@H](C)NC(=O)[C@H]2C)CN1 [Example 48, (3R,6S)-4-{[(2R,5R)-1-(2-(6-[(4-Fluorophenyl)methyl]-3,3-dimethyl-1H,2H,3H-pyrrolo[3,2-b]pyridin-1-yl}-2-oxoethyl)-5-methylpiperazin-2-yl]methyl}-3,6-dimethylpiperazin-2-one, dihydrochloride] | 49 | 4.3 | < 1000 | – | – | – |
| CCCC(F)(F)c1cc2c(cn1)C(C)(C)CN2C(=O)CN1C[C@@H](C)NC[C@@H]1CN1CCN(C(C)=O)C[C@H]1C [Example 60, 2-[(2R,5R)-2-{[(2R)-4-Acetyl-2-methylpiperazin-1-yl]methyl}-5-methylpiperazin-1-yl]-1-[6-(1,1-difluorobutyl)-3,3-dimethyl-1H,2H,3H-pyrrolo[3,2-c]pyridin-1-yl]ethan-1-one, dihydrochloride] | 74 | 6.7 | < 1000 | – | – | – |
| C[C@@H]1CN(CC(=O)N2CC(C)(C)c3ncc(Cc4ccc(F)cc4)cc32)[C@@H](CN2CCN(c3ncccn3)C[C@H]2C)CN1 [Example 53, 1-{6-[(4-Fluorophenyl)methyl]-3,3-dimethyl-1H,2H,3H-pyrrolo[3,2-b]pyridin-1-yl}-2-[(2R,5R)-5-methyl-2-{[(2R)-2-methyl-4-(pyrimidin-2-yl)piperazin-1-yl]methyl}piperazin-1-yl]ethan-1-one, dihydrochloride] | 59 | 0.61 | < 1000 | – | – | – |
| C[C@@H]1CN(CC(=O)N2CC(C)(C)c3ncc(Cc4ccc(F)cc4)cc32)[C@@H](CN2CCC[C@@H]2C(F)(F)F)CN1 [Example 38, 1-{6-[(4-Fluorophenyl)methyl]-3,3-dimethyl-1H,2H,3H-pyrrolo[3,2-b]pyridin-1-yl}-2-[(2R,5R)-5-methyl-2-{[(2R)-2-(trifluoromethyl)pyrrolidin-1-yl]methyl}piperazin-1-yl]ethan-1-one] | – | 34 | < 1000 | – | 0.48 | – |
| C[C@@H]1CN(CC(=O)N2CC(C)(C)c3ncc(Cc4ccc(F)cc4)cc32)[C@@H](CN2CCN(C)C(=O)[C@H]2C)CN1 [Example 34, (3R)-4-{[(2R,5R)-1-(2-{6-[(4-Fluorophenyl)methyl]-3,3-dimethyl-1H,2H,3H-pyrrolo[3,2-b]pyridin-1-yl}-2-oxoethyl)-5-methylpiperazin-2-yl]methyl}-1,3-dimethylpiperazin-2-one dihydrochloride] | 42 | 0.85 | < 1000 | – | – | – |
| CC1N(C[C@H]2CN[C@H](C)CN2CC(=O)N2CC(C)(C)c3ncc(Cc4ccc(F)cc4)cc32)CCOC1(C)C (stereo partly drawn) [Example 32, 1-{6-[(4-Fluorophenyl)methyl]-3,3-dimethyl-1H,2H,3H-pyrrolo[3,2-b]pyridin-1-yl}-2-[(2R,5R)-5-methyl-2-[(2,2,3-trimethylmorpholin-4-yl)methyl]piperazin-1-yl]ethan-1-one dihydrochloride] | 42 | 0.7 | < 1000 | – | – | – |
| C[C@@H]1CN(CC(=O)N2CC(C)(C)c3ncc(Cc4ccc(F)cc4)cc32)[C@@H](CN2CCCNC(=O)C2)CN1 [Example 46, 4-{[(2R,5R)-1-(2-{6-[(4-Fluorophenyl)methyl]-3,3-dimethyl-1H,2H,3H-pyrrolo[3,2-b]pyridin-1-yl}-2-oxoethyl)-5-methylpiperazin-2-yl]methyl}-1,4-diazepan-2-one, dihydrochloride] | – | 36 | < 1000 | – | 0.13 | – |
| C[C@@H]1CN(CC(=O)N2CC(C)(C)c3ncc(Cc4ccccc4)cc32)[C@@H](CN2[C@H](C)COC[C@H]2C)CN1 [Example 29, 1-{6-Benzyl-3,3-dimethyl-1H,2H,3H-pyrrolo[3,2-b]pyridin-1-yl}-2-[(2R,5R)-2-{[(3R,5R)-3,5-dimethylmorpholin-4-yl]methyl}-5-methylpiperazin-1-yl]ethan-1-one dihydrochloride] | 47 | 0.4 | < 1000 | – | – | – |
| C[C@@H]1CN(CC(=O)N2CC(C)(C)c3ncc(Cc4ccc(F)cc4)cc32)[C@@H](CN2CCOC[C@H]2CO)CN1 [Example 2, 1-{6-[(4-Fluorophenyl)methyl]-3,3-dimethyl-1H,2H,3H-pyrrolo[3,2-b]pyridin-1-yl}-2-[(2R,5R)-2-{[(3R)-3-(hydroxymethyl)morpholin-4-yl]methyl}-5-methylpiperazin-1-yl]ethan-1-one dihydrochloride] | 40 | 1.7 | < 1000 | – | – | – |
| CCCC(O)c1cnc2c(c1)N(C(=O)CN1C[C@@H](C)NC[C@@H]1CN1[C@H](C)COC[C@H]1C)CC2(C)C (single isomer, unassigned) [Example 101, 2-[(2R,5R)-2-{[(3R,5R)-3,5-Dimethylmorpholin-4-yl]methyl}-5-methylpiperazin-1-yl]-1-[6-(1-(R or S)-hydroxybutyl)-3,3-dimethyl-1H,2H,3H-pyrrolo[3,2-b]pyridin-1-yl]ethan-1-one dihydrochloride] | 47 | 31 | < 1000 | – | – | – |
| C[C@@H]1CN(CC(=O)N2CC(C)(C)c3ncc(Cc4ccc(F)cc4F)cc32)[C@@H](CN2[C@H](C)COC[C@H]2C)CN1 [Example 54, 1-{6-[(2,4-Difluorophenyl)methyl]-3,3-dimethyl-1H,2H,3H-pyrrolo[3,2-b]pyridin-1-yl}-2-[(2R,5R)-2-{[(3R,5R)-3,5-dimethylmorpholin-4-yl]methyl}-5-methylpiperazin-1-yl]ethan-1-one, dihydrochloride] | 59 | – | < 1000 | – | – | 96 |
| CCCC(F)(F)c1cc2c(cn1)C(C)(C)CN2C(=O)CN1C[C@@H](C)NC[C@@H]1CN1[C@H](C)COC[C@H]1C [Example 44, 1-[6-(1,1-Difluorobutyl)-3,3-dimethyl-1H,2H,3H-pyrrolo[3,2-c]pyridin-1-yl]-2-[2R,5R)-2-{[(3R,5R)-3,5-dimethylmorpholin-4-yl]methyl}-5-methylpiperazin-1-yl]ethan-1-one, dihydrochloride] | 78 | 1 | < 1000 | – | – | – |
| CCCC(F)(F)c1cc2c(cn1)C(C)(C)CN2C(=O)CN1C[C@@H](C)NC[C@@H]1CN1CCOC[C@@]1(C)CO (single isomer, unassigned) [Example 68, dihydrochloride] | 69 | 22 | < 1000 | – | – | – |
| C[C@@H]1CN(CC(=O)N2CC(C)(C)c3nnc(Cc4ccc(F)cc4F)cc32)[C@@H](CN2[C@H](C)COC[C@H]2C)CN1 [Example 88, 1-{3-[(2,4-Difluorophenyl)methyl]-7,7-dimethyl-5H,6H,7H-pyrrolo[3,2-c]pyridazin-5-yl}-2-[(2R,5R)-2-{[(3R,5R)-3,5-dimethymorpholin-4-yl]methyl}-5-methylpiperazin-1-yl]ethan-1-one dihydrochloride] | – | 0.24 | < 1000 | – | 0.22 | – |
